Tests used:
[1] = test system: Mouse TCRP1A CD8+ T cells; test: IFNγ secretion assay (ELISA), mouse T cells; assay type: cell-based; conditions: guanabenz 10, 20 or 40 μM, 16 h to 24 h, co-culture with L1210-P1A-B7.1 target cells; FIG. 1B
Description: Mouse TCRP1A CD8^+ T cells: P1A-specific (TCRP1A) CD8^+ T cells were isolated from spleens and lymph nodes of TCRP1A mice using anti-mouse CD8a (Ly-2) MicroBeads (Miltenyi Biotec). IFNγ secretion assay: CD8^+ T cells were plated at 50,000 cells per well in a 96 U plate with different concentration of guanabenz in full medium supplemented with IL2 and incubated at 37° C. overnight prior to their use in the assay on the next day. On the day of the assay, the culture supernatant was removed from the cells and the cells were washed once with complete medium to remove the drug completely. The target cells L1210-P1A-B7.1 or T2 cells loaded with WT1126-134 peptide were added to the wells at a ratio of 1:1. Control wells containing either only T cells or […] were also included for each plate. The plate was then incubated at 37° C. overnight. At the end of the incubation period the supernatant was collected and the amount of IFNγ was measured by ELISA according to manufacturer's instruction (R&D). T cells were incubated with guanabenz (10, 20, or 40 μM) for 16 h to 24 h as indicated. Mice received a daily intra-peritoneal injection of guanabenz (5 mg/kg) or vehicle (PBS) from the day of randomization (and the day of ACT when applicable) until the day of sacrifice.

[2] = test system: T429.11 transplanted tumor; test: TiRP-derived T429.11 transplanted melanoma model; assay type: in vivo, mouse
Description: TiRP-derived T429.11 transplanted melanoma model: T429.11 clone was derived from an induced Amela TiRP tumor referred to as T429. It was cloned from the T429 induced melanoma primary tumor line. Two million of T429.11 tumor cells were injected subcutaneously into recipient mice for tumor establishment (Zhu et al, Nat Commun 2017, 10; 8(1):1404).
T cells were incubated with guanabenz (10, 20, or 40 μM) for 16 h to 24 h as indicated. Mice received a daily intra-peritoneal injection of guanabenz (5 mg/kg) or vehicle (PBS) from the day of randomization (and the day of ACT when applicable) until the day of sacrifice.
The T429.11 transplanted melanoma model was previously shown not to respond to anti-PD-1 and anti-CTLA4 therapy (Zhu et al., Nature communications. Nov. 10 2017; 8(1):1404). T429.11 transplanted tumor bearing mice received daily injections of guanabenz (5 mg/kg, i.p.) or vehicle (PBS, i.p.) from the day when the tumor size was around 1000 mm^3 (day 1) until the day of sacrifice (day 6). […] As shown on FIG. 2B, the decreased tumor growth was accompanied with an increased tumor infiltration of CD8^+ T cells.

[3] = test system: TiRP tumor; test: TiRP melanoma model, drug alone; assay type: in vivo, mouse; conditions: 5 mg/kg i.p. daily from tumor size around 400 mm^3 (day 0) to day 12, vs vehicle; FIG. 3
Text: TiRP mice: TiRP mice have been created by crossing Ink4a/Arf^flox/flox mice with mice carrying a transgenic construct controlled by the tyrosinase promoter and driving the expression of H-Ras^12V and Trap1a which encodes a MAGE-type tumor antigen P1A; the promoter is separated from the coding region by a stop cassette made of a floxed self-deleting CreER (Huijbers et al., 2006, Cancer Res 66, 3278-3286). Those mice were backcrossed to a B10.D2 background and bred to homozygosity. TCRP1A mice heterozygous for the H-2Ld/P1A35-43-specific TCR transgene were kept on the B10.D2; Rag1^−/− background (Shanker et al., 2004, J Immunol 172, 5069-5077). All mice used in this study were produced under specific pathogen free (SPF) conditions at the animal facility of the Ludwig Institute for Cancer Research. All the rules concerning animal welfare have been respected according to the 2010/63/EU Directive. […]
A fresh solution of 40H-Tamoxifen was prepared by dissolving 40H-Tamoxifen (Imaginechem) in 100% ethanol and mineral oil (ratio 1:9) followed by 30-min sonication, and injected subcutaneously (2 mg/200 μL per mouse) in the neck area of gender-matched 7 weeks old TiRP mice. Tumor appearance was monitored daily and tumors were measured three times/week. Tumor volume (in mm^3) was calculated by the following formula: Volume=width^2×length/2. […]

[4] = test system: IFNγ producing CD8+ T cells; test: Immunization with ovalbumin; assay type: in vivo, C57BL/6J mice; conditions: 100 μg (5 mg/kg) guanabenz with OVA/Alhydrogel, vs non-immunized control
Description: Immunization with Ovalbumin: C57BL/6J mice were immunized once by intraperitoneal (i.p.) injection of 200 ug of OVA protein adsorbed onto Alhydrogel adjuvant 2% (Sigma) These mice were administered 100 μg (5 mg/kg) of guanabenz 2 hours before the immunization and daily after the immunization. […] Intracellular IFNγ staining: one week after the immunization, the blood and spleen of each mouse were collected. Cells derived from the spleen and blood of each immunized mouse were cultured for 1 hour in 96 well U bottomed plates at 37° C. in the presence of 10 μM OVA peptide. Brefeldin A (10 μg/mL) was added to each well and the cells were incubated for an additional 4 hours. The immune response of each mouse was evaluated by measuring the amount of IFNγ producing CD8^+ T cells using antibodies against CD8 and IFNγ. Samples were then examined by FACS Fortessa flow cytometry.

NC(N)=N/N=C/c1c(Cl)cccc1Cl [guanabenz, 2-[(E)-(2,6-dichlorophenyl)methylideneamino]guanidine]
secretion of IFNγ (ELISA) [1]: increased | tumor growth ([2]; 5 mg/kg i.p. daily from tumor size around 1000 mm^3 (day 1) to day 6, vs vehicle, FIG. 2A): inhibited tumor growth | tumor infiltration of CD8+ T cells (FACS) ([2]; 5 mg/kg i.p. daily, day of sacrifice (day 6), vs vehicle, FIG. 2B): increased | TiRP tumor growth [3]: inhibitory effect | percentage of IFNγ producing CD8+ T cells among total CD8+ T, blood ([4]; blood cells with 10 μM OVA peptide, FIG. 8A): significant increase | percentage of IFNγ producing CD8+ T cells among total CD8+ T, spleen ([4]; spleen cells with 10 μM OVA peptide, FIG. 8B): significant increase
